Measured values as given in patent EP0992240A1, “THERAPEUTIC AGENT FOR ERECTION FAILURE” (MOCHIDA PHARMACEUTICAL CO., LTD., priority 1997, dated 1998).

Assays:
PDE type V = target: T1, PDE type V (Canis lupus familiaris, UniProt O77746); assay: PDE inhibiting activity, type V; assay type: biochemical, dog; details: PDE purified from canine aorta; 1 µM substrate cGMP or cAMP; read-out: Inhibition Activity IC50 (µM) Type V
T1 construct: By elution with a sodium chloride gradient (0 - 0.4 M), PDE types V and III were separated from the other isozymes; from tissue; host or cells: canine aorta

PDE type I = assay: PDE inhibiting activity, type I; assay type: biochemical, dog; details: PDE purified from canine aorta; 1 µM substrate cGMP or cAMP; read-out: Inhibition Activity IC50 (µM) Type I
Procedure: On the basis of the method of Lugnier et al. (Biochem. Pharmacol., 35, 1743-1751, 1986), PDE was purified from the aorta in a dog. The canine aorta was minced and homogenized with a Waring Blender and a glass homogenizer in six volumes of a Tris-HCl buffer solution (pH 7.5, 20 mM) containing 2 mM magnesium acetate, 5 mM ethylenediaminetetraacetic acid (EDTA), 100 µg/mL of phenylmethylsulforyl fluoride and 15 mM 2-mercaptoethanol (2-ME), and centrifuged at 1200 x g for 30 min. The supernatant was separated and salted out with ammonium sulfate which was added to 45% saturation. The resulting precipitated fraction was resuspended in a Tris-HCl buffer solution (pH 7.5, 20 mM) containing 2 mM magnesium acetate and 1 mM 2-ME, dialyzed overnight and applied to a DEAE-trisacryl column (DEAE […] M:IBF). By elution with a sodium chloride gradient (0 - 0.4 M), PDE types V and III were separated from the other isozymes. The supernatant fraction of 45% saturated ammonium sulfate was further mixed with ammonium sulfate to 65% saturation and salted out. The resulting precipitated fraction was similarly applied to the DEAE-trisacryl column and eluted by a sodium chloride gradient (0 - 0.4 M) so as to separate PDE type I.
The thus obtained PDE types V, III and I were measured for their activity in accordance with the method of Thompson et al. (Adv. Cyclic Nucleotide Res., 10, 69-72, 1979) and the method of Wells et al. (Biochim. Biophys. Acta, 384, 430-443, 1975). Specifically, a purified PDE sample was added to 50 mM Tris-HCl buffer solution (pH 7.5) containing 1 µM of substrate cGMP or cAMP (containing tritium-labelled cGMP or cAMP), 1 mM EGTA and 2 mM magnesium acetate. For PDE activity measurement, enzymatically produced 5' GMP or 5' AMP was further hydrolyzed into guanosine or adenosine with snake venom and separated from the substrate by means of an ion-exchange resin (Dowex 1-X2), followed by measuring with a scintillation counter. The activity of each test compound was determined as a percentage of the PDE activity measured when it was added as a dimethyl sulfoxide solution (DMSO) and its IC50 (50% inhibition concentration) was calculated by the probit method. The final concentration of DMSO was adjusted to be no more than 2% in consideration of the effect on PDE activity.

Row | SMILES | IC50 (PDE type V) | IC50 (PDE type I)
1 | CC(C)(C)OC(=O)COc1cc2c(=O)ccn3c4ccc(Br)cc4c(c1)c23 [Example 21, 10-bromo-2-t-butoxycarbonylmethyloxy-4H-pyrido[3,2,1-jk]carbazol-4-one] | 0.0009 µM | > 30 µM
2 | Cc1cn2c3ccc(Br)cc3c3cc(O)cc(c1=O)c32 [Example 14, 10-bromo-2-hydroxy-5-methyl-4H-pyrido[3,2,1-jk]carbazol-4-one] | 0.1 µM | > 300 µM
3 | O=c1c(Cc2cccnc2)cn2c3ccc(Br)cc3c3cc(OCc4cccnc4)cc1c32 [Example 10, 10-bromo-5-(3-pyridylmethyl)-2-(3-pyridylmethyloxy)-4H-pyrido[3,2,1-jk]carbazol-4-one] | 0.059 µM | > 30 µM
4 | CC(=O)OCc1cncc(COc2cc3c(=O)c(Cc4cccnc4)cn4c5cc(Br)ccc5c(c2)c34)c1 [Example 35, 2-(5-acetoxymethyl-3-pyridylmethyloxy)-9-bromo-5-(3-pyridylmethyl)-4H-pyrido[3,2,1-jk]carbazol-4-one] | 0.088 µM | > 30 µM
5 | CC(=O)Oc1cc2c(=O)c(Cc3cccnc3)cn3c4ccccc4c(c1)c23 [Example 42, 2-acetoxy-5-(3-pyridylmethyl)-4H-pyrido[3,2,1-jk]carbazol-4-one] | 0.2 µM | > 30 µM
6 | COc1cc2c(=O)c(Cc3ccccc3)cn3c4cc(Br)ccc4c(c1)c23 [Example 39, 5-benzyl-9-bromo-2-methoxy-4H-pyrido[3,2,1-jk]carbazol-4-one] | 0.026 µM | > 30 µM
7 | O=c1c(Cc2cccnc2)cn2c3ccc(Br)cc3c3cc(O)cc1c32 [Example 2, 10-bromo-2-hydroxy-5-(3-pyridylmethyl)-4H-pyrido[3,2,1-jk]carbazol-4-one] | 0.1 µM | > 30 µM
8 | Cc1cn2c3ccc(Br)cc3c3cc(OCC(=O)OC(C)C)cc(c1=O)c32 [Example 16] | 0.0017 µM | > 30 µM
9 | CC(=O)Oc1cc2c(=O)ccn3c4ccc(Br)cc4c(c1)c23 [Example 28, 2-acetoxy-10-bromo-4H-pyrido[3,2,1-jk]carbazol-4-one] | 0.1 µM | > 100 µM
10 | CC(C)(C)OC(=O)COc1cc2c(=O)c(Cc3cccnc3)cn3c4cc(Br)ccc4c(c1)c23 [Example 32, 9-bromo-2-t-butoxycarbonylmethyloxy-5-(3-pyridylmethyl)-4H-pyrido[3,2,1-jk]carbazol-4-one] | 0.091 µM | > 30 µM
11 | O=c1ccn2c3ccc(Cl)cc3c3cc(Cl)cc1c32 [Example 48, 2,10-dichlor-4H-pyrido[3,2,1-jk]carbazol-4-one] |  | > 30 µM
12 | COc1cc2c(=O)c(Cc3cccnc3)cn3c4cc(Br)ccc4c(c1)c23 [Example 30, 9-bromo-2-methoxy-5-(3-pyridylmethyl)-4H-pyrido[3,2,1-jk]carbazol-4-one] | 0.0047 µM | > 30 µM
13 | O=c1c(Cc2cccnc2)cn2c3ccc(Br)cc3c3cc(OCc4ccccc4)cc1c32 [Example 11, 2-benzyloxy-10-bromo-5-(3-pyridylmethyl)-4H-pyrido[3,2,1-jk]carbazol-4-one] | 0.11 µM | > 30 µM
14 | O=c1c(Cc2cccnc2)cn2c3cc(Br)ccc3c3cc(OCc4cncc(CO)c4)cc1c32 [Example 36, 9-bromo-2-(5-hydroxymethyl-3-pyridylmethyloxy)-5-(3-pyridylmethyl)-4H-pyrido[3,2,1-jk]carbazol-4-one] | 0.021 µM | > 30 µM
15 | CC(=O)Oc1ccc2c3cccc4c(=O)c(Cc5cccnc5)cn(c2c1)c43 [Example 45, 9-acetoxy-5-(3-pyridylmethyl)-4H-pyrido[3,2,1-jk]carbazol-4-one] | 0.06 µM | > 30 µM
16 | O=C(O)COc1cc2c(=O)c(Cc3cccnc3)cn3c4cc(Br)ccc4c(c1)c23 [Example 33, 9-bromo-2-carboxymethyloxy-5-(3-pyridylmethyl)-4H-pyrido[3,2,1-jk]carbazol-4-one] | 0.0032 µM | > 30 µM
17 | O=c1c(Cc2ccccc2)cn2c3cc(Br)ccc3c3cc(O)cc1c32 [Example 40, 5-benzyl-9-bromo-2-hydroxy-4H-pyrido[3,2,1-jk]carbazol-4-one] | 0.009 µM | > 30 µM
18 | O=c1c(Cc2cccnc2)cn2c3ccccc3c3cc(O)cc1c32 [Example 41, 2-hydroxy-5-(3-pyridylmethyl)-4H-pyrido[3,2,1-jk]carbazol-4-one] | 0.36 µM | 48 µM

Next, values leading:

Row | IC50 (PDE type V) | IC50 (PDE type I) | SMILES
19 | 0.0038 µM | > 30 µM | CC(C)OC(=O)COc1cc2c(=O)c(Cc3cccnc3)cn3c4ccc(Br)cc4c(c1)c23 [Example 4, 10-bromo-2-i-propoxycarbonylmethyloxy-5-(3-pyridylmethyl)-4H-pyrido[3,2,1-jk]carbazol-4-one]
20 | 0.01 µM | > 30 µM | O=c1ccn2c3ccc(Br)cc3c3cc(OCc4ccccc4)cc1c32 [Example 26, 2-benzyloxy-10-bromo-4H-pyrido[3,2,1-jk]carbazol-4-one]
21 | 0.011 µM | > 100 µM | O=c1ccn2c3ccc(Br)cc3c3cc(OCc4cccnc4)cc1c32 [Example 25, 10-bromo-2-(3-pyridylmethyloxy)-4H-pyrido[3,2,1-jk]carbazol-4-one]
22 | 0.002 µM | > 30 µM | CCOC(=O)COc1cc2c(=O)ccn3c4ccc(Br)cc4c(c1)c23 [Example 23, 10-bromo-2-ethoxycarbonylmethyloxy-4H-pyrido[3,2,1-jk]carbazol-4-one]
23 | 0.015 µM | > 30 µM | CCCC(=O)COc1cc2c(=O)c(C)cn3c4ccc(Br)cc4c(c1)c23 [Example 18, 10-bromo-2-(2-oxopentyloxy)-5-methyl-4H-pyrido[3,2,1-jk]carbazol-4-one]
24 | 0.021 µM | > 30 µM | O=c1ccn2c3ccc(Br)cc3c3cc(OCc4ncon4)cc1c32 [Example 27, 10-bromo-2-(1,2,4-oxadiazol-3-yl)methyloxy-4H-pyrido[3,2,1-jk]carbazol-4-one]
25 | 0.0047 µM | > 30 µM | CCCC(=O)COc1cc2c(=O)ccn3c4ccc(Br)cc4c(c1)c23 [Example 29, 10-bromo-2-(2-oxopentyloxy)-4H-pyrido[3,2,1-jk]carbazol-4-one]
26 | 0.19 µM | > 30 µM | O=C(O)COc1cc2c(=O)ccn3c4ccc(Br)cc4c(c1)c23 [Example 24, 10-bromo-2-carboxymethyloxy-4H-pyrido[3,2,1-jk]carbazol-4-one]
27 | 0.05 µM | > 10 µM | COc1cc2c(=O)ccn3c4ccc(Br)cc4c(c1)c23 [Example 19, 10-bromo-2-methoxy-4H-pyrido[3,2,1-jk]carbazol-4-one]
28 | 0.0035 µM | > 30 µM | CCOC(=O)COc1cc2c(=O)c(C)cn3c4ccc(Br)cc4c(c1)c23 [Example 17, 10-bromo-2-ethoxycarbonylmethyloxy-5-methyl-4H-pyrido[3,2,1-jk]carbazol-4-one]
29 | 0.0008 µM | > 30 µM | CC(C)OC(=O)COc1cc2c(=O)ccn3c4ccc(Br)cc4c(c1)c23 [Example 22, 10-bromo-2-i-propoxycarbonylmethyloxy-4H-pyrido[3,2,1-jk]carbazol-4-one]
30 | 0.0055 µM | > 30 µM | CCOC(=O)COc1cc2c(=O)c(Cc3cccnc3)cn3c4ccc(Br)cc4c(c1)c23 [Example 5, 10-bromo-2-ethoxycarbonylmethyloxy-5-(3-pyridylmethyl)-4H-pyrido[3,2,1-jk]carbazol-4-one]
31 | 0.03 µM | > 100 µM | O=c1ccn2c3ccc(Br)cc3c3cc(O)cc1c32 [Example 20, 10-bromo-2-hydroxy-4H-pyrido[3,2,1-jk]carbazol-4-one]
32 | 0.1 µM | > 100 µM | COc1cc2c(=O)c(C)cn3c4ccc(Br)cc4c(c1)c23 [Example 13, 10-bromo-2-methoxy-5-methyl-4H-pyrido[3,2,1-jk]carbazol-4-one]
